Patent US9271504B2, “Insecticidal compositions and uses thereof” (Board of Trustees of Michigan State University, priority 2005, dated 2016)
“And” between values parts separate entries of the source, which are not always exact repeats. Equal entries are not always repeated.

What was measured:
[1] = system: Colorado potato beetle 1st-4th instar larvae and adults; test: Contact toxicity to various development stages; format: in vivo, Leptinotarsa decemlineata; details: 48 h incubation, 40% (w/w) suspension
Protocol: The plant samples were prepared according to the procedure described above. Nine extracts were used in this study. The plants (Table 8) were all collected during spring and summer of 2002. Samples were dried at room temperature and were ground for 5 min in a mill (M 20 IKA Universal Mill, IKA Group). […] For the dose-mortality bioassay, H. lupulus extract stock suspension was prepared as described above, containing 50% (w/w) plant extract/water with 10% acetone, and diluted in distilled water containing 10% acetone (w/w) to produce solutions containing 2.5, 5, 10, 20 and 40% (w/w).
Extract contact effects were determined on 1st-4th instar larvae as well as adult beetles. Twenty individuals for each development stage were transferred to Whatman filter paper in 90 mm disposable Petri dishes. The plant extract suspensions were shaken for 1 min and 2 ml of extract suspension was applied to each batch using a Potter spray tower set at 10 PSI with a 0.7 mm diameter fine droplet spray nozzle. After spraying, the insects were left to dry for 10 min at room temperature before transferring into a 1 l glass jar with fresh potato leaflets. The insects were incubated at 28±2° C. and 16:8 hr photophase. Controls were treated with 2 ml sterile distilled water containing 10% acetone. Imidacloprid (CONFIDOR SL, Bayer) was used as a standard control and three groups of 20 insects were treated with 2 ml of imidacloprid at the manufacturer's recommended rate (1.5 μl/ml) in distilled water. Mortalities were recorded at 24 h intervals for 7 d. Data were submitted to a randomized complete block statistical analysis. Three replicates of each developmental stage were sprayed with a plant extract suspension, three were used as control in each trial and three trials were performed each consisting of 3 treatment replicates.
Screening data were corrected for mortality in the controls using Abbott's formula (Abbott, J Econ Entomol 18:265-267 (1925)) and then normalised using an arcsine transformation. Transformed data were analyzed using ANOVA (P<0.05) and Tukeys mean separation (P≦0.05). All statistical analyses were carried out using MINITAB Release 14. Colorado potato beetle mortality obtained from dose-mortality bioassay utilizing H. lupulus was corrected for control mortality using Abbott's formula (supra). The corrected mortality data were analyzed using POLO-PC to estimate LC50, LC90 and the regression line slopes. Homogeneity of the regression lines between various developmental stages were tested using the maximum likelihood approximation test (P≦0.05).

[2] = system: 3rd instar Colorado potato beetle larvae; test: Contact toxicity bioassay (Potter spray tower), 3rd instar larvae; details: 2 ml of 40% (w/w) plant suspension
Protocol: Fifty grams of sample were placed into 1000 ml Erlemneyer flasks with 500 ml of methanol (Sigma). Flasks were covered with aluminum foil, placed on a horizontal shaker (HS 260 Basic, IKA Group) and shaken (120 oscillations/min for 24 h) in the dark. The suspension was filtered through two layers of cheese cloth, transferred into a 250 ml evaporating flask and excess methanol evaporated in a rotary evaporator (RV 05 Basic 1B, IKA Group) at 32±2° C. The resulting residue was weighted and eluted with sufficient distilled water containing 10% acetone (w/w) to yield a 40% (w/w) plant suspension.
Two ml of the distilled water containing 10% acetone was also applied to 20 larvae in each replicate as a negative control along with imidacloprid (CONFIDOR SL, Bayer) at manufacturer recommended rate as a positive control. After spraying, the larvae were transferred into 1000 ml glass jars and provided with fresh potato leaflets. The top of each jar was covered with cheese cloth and held at 28±2° C. and 16 h: 8 h light dark photo regime. Mortalities were recorded at 24 h intervals for 7 days. […] Each treatment was replicated three times within a trial and each trial was repeated three times.
Data were corrected for mortality in the controls using Abbotts formula and then normalized using arcsine transformation. Transformed data were analyzed using ANOVA (∝=0.05) and Tukeys mean separation (∝=0.05). […]

[3] = system: 3rd instar Colorado potato beetle larvae; test: Residual (stomach poison) toxicity bioassay on treated potato leaflets; format: in vivo, Leptinotarsa decemlineata; details: leaflets treated with 20% (w/w) extract
Protocol: Stomach poison effects of the thirty plant extracts were assed by morbidity assays using 3rd instar larvae fed on treated potato leaflets.
Leaflets were treated with 2 ml of each plant extract suspension in distilled water containing 10% acetone with the Potter Spray Tower set at 10 PSI with a 0.7 mm internal diameter nozzle. After treatment, the leaflets were dried at room temperature for about 5 min. The cut end of each leaflet petiole was covered with a 30×55 mm piece of sterile cotton wool, which was moistened with 2 ml of water containing 1% NPK (20-20-20) fertilizer. This treatment ensured that the excised leaflet remained green for at least 7 days. Treated leaflets were transferred into 1000 ml glass jars to which 20 3rd instar larvae were added before incubation as described above. Mortalities were assessed at 24 hr intervals for 7 days. Control leaflets were treated with 2 ml of distilled water containing 10% acetone and the standard imidacloprid control was used as described above. Each treatment was repeated three times per block and blocks were completed in a randomized complete block design.

[4] = system: redbanded leafrollers, Argyrotaenia velutinana; test: Electroantennogram (EAG) responses of redbanded leafrollers; format: in vivo; details: 2 mg on filter paper
Protocol: (§1) Five natural-product sources were used per study. The plants (Table 1) were all collected from sandy lime soil during spring and summer of 2002 in Ta ? liçiftlik, Tokat, in a temperate region of Turkey, where the altitude is 600 m. Samples were dried at room temperature for 3 wk in the dark and subsequently were ground in a mill (M 20 IKA Universal Mill, IKA Group). Ground plants were stored in 2000-ml glass jars at 18±2° C. in the dark. Fifty-gram samples were placed into 1000-ml Erlenmeyer flasks with 500-ml of methanol (Sigma). […] The resulting residue was weighed and mixed with acetone to yield a 20% (w/w) plant suspension.
(§2) The EAG system and test protocols have been detailed by Stelinski et al. (2003 J. Chem. Ecol. 29: 403-422; Physiol. Entomol. 28: 97-107). Two milligrams of plant extracts (Table 1) or pheromone ((Z)11-14:Ac (lot #10010), Shin Etsu Tokyo, Japan) were diluted in acetone (20 μl total solution) and pipetted onto 1.4×0.5 cm strips of Whatman No. 1 filter paper. […] EAGs were measured as the maximum amplitude of depolarization elicited by 1-ml puffs of air through EAG-cartridges directed over live-insect preparations.
(§3) Male and female obliquebanded leafrollers and redbanded leafrollers were 2-4 d old when used for electroantennograms. […] For each sample tested, EAGs were recorded from ten moths of each sex. […]

[5] = system: obliquebanded leafrollers, Choristoneura rosaceana; test: Eight-arm olfactometer attraction study; format: in vivo; details: 25 μl of 20% w/w extract in acetone, counts after 24 h
From the text: Male or female obliquebanded leafrollers used in this study were 1-3 d old. They were reared as described above. Discs, 55 mm in diameter, were cut from the sticky liners of pheromone traps (LPD Scenturian Guardpost, Suterra, Bend, Oreg.) intended for catching Lepidoptera. Each sticky disc was cleaned with acetone and placed into sterile 90-mm disposable Petri dish. Twenty millimeter diameter discs, cut from Whatman Number 1 filter paper, were placed centrally on top of the 55-mm sticky discs. Twenty-five microliters of each plant extract, diluted in acetone (20% w/w), was applied to the central filter paper disc. In the control treatment, 25-μl of acetone was applied to the disc. In the positive control, 25-μl of the pheromone component (Z)11-14:Ac was applied. In addition to positive control and negative or non-treatment control discs, a three-component obliquebanded leafroller pheromone in a rubber septum was also used as a standard. The septa were loaded with 0.485 mg of (Z)- and 0.015 mg (E)-11-tetradecenyl acetates and 0.026 mg of (Z)-11-tetradecenol (Hill and Roelofs 1979). […]
For the olfactometer test, the number of male insects attracted by each treatment was expressed as a percentage of the total number of insects tested in each replicate. […] The transformed data were analyzed using single-factor ANOVA (Minitab Release 14) (P=0.05) followed by Tukey's test (P=0.05). […]

[6] = system: obliquebanded leafrollers, Choristoneura rosaceana; test: Electroantennogram (EAG) responses of obliquebanded leafrollers; format: in vivo; details: 2 mg on filter paper
Protocol: as §1, §2, §3

Structure (SMILES): O=[N+]([O-])NC1=NCCN1Cc1ccc(Cl)nc1 [Imidacloprid]
- % Mortality ± SEM, contact toxicity ([1]; 1st Instar Larvae): 100%
- % Mortality ± SEM, contact toxicity ([1]; 2nd Instar Larvae): 94.8% and 94.82 ± 3.05 a %
- % Mortality ± SEM, contact toxicity ([1]; 3rd Instar Larvae): 100%
- % Mortality ± SEM, contact toxicity ([1]; 4th Instar Larvae): 11.5% and 11.57 ± 0.11 b %
- % Mortality ± SEM, contact toxicity ([1]; Adult): 44.37 ± 3.32 a %
- Mortality % (mean ± SEM) caused by contact effect ([2]; 24 h incubation at 28 ± 2° C.): 100 ± 0.00 a A %
- Mortality % (mean ± SEM) caused by contact effect ([2]; 48 h incubation at 28 ± 2° C.): 100 ± 0.00 a A %
- Residual toxicities % (mean ± SEM) ([3]; 48 h incubation at 28 ± 2° C.): 71.9% and 71.89 ± 0.25 a A %
- Residual toxicities % (mean ± SEM) ([3]; 72 h incubation at 28 ± 2° C.): 83.64 ± 0.23 a A %

Structure (SMILES): CC/C=C\CCCCCCCCCCOC(C)=O [Pheromone, (Z)11-14:Ac]
- EAG responses (mV ± SE) upon stimulation with 1 ml of air through stimulus cartridge ([4]; females): 0.43 ± 0.06 a mV
- EAG responses (mV ± SE) upon stimulation with 1 ml of air through stimulus cartridge ([4]; males): 5.42 ± 0.40 a mV
- Attraction (Mean ± SEM) % ([5]; females, listed as Pheromone on paper): 1.1% and 1.14 ± 1.12 b %
- Attraction (Mean ± SEM) % ([5]; males): 4.05 ± 1.66 bc %
- EAG responses (mV ± SE) upon stimulation with 1 ml of air through stimulus cartridge ([6]; females): 0.45 ± 0.06 ab mV
- EAG responses (mV ± SE) upon stimulation with 1 ml of air through stimulus cartridge ([6]; males): 4.87 ± 0.32 a mV
